Data reported in patent US9206136B2, “Pyrazolyl-based carboxamides I” (Grünenthal GmbH, priority 2013, dated 2015).

Assays:
[1] = biological target: T1, CRAC channel (endogenous SOC in HEK293 cells) (Homo sapiens, UniProt Q96D31); assay: HEK Calcium Influx Assay (FLIPR); format: cell-based; conditions: 10 μM compound, thapsigargin store depletion, Ca2+ signal 9.5-10 min post-administration, read-out: % inhib. [@ 10 μM] FLIPR
T1 construct: host or cells: HEK293
Description: Compounds of the invention have been tested for their effects on CRAC channels according to the following or similar procedures.
The effect of compounds of the invention on intracellular [Ca^2+] was tested in the HEK293 cell line (ECACC).
HEK293 cells were cultured in DMEM/F12/Glutamax (Gibco) containing 10% FCS (Gibco), and maintained at 37° C., 5% CO2. Cell were split twice a week [3·10^6 (Mon-Thu) and 1·10^6 (Thu-Mon) cells/50 ml medium in T-175 ZK culture flasks, respectively]. 24 hours pre-experiment, cells were seeded on 96 well plates (Poly-D-Lysine 96well Black/Clear Plate, BD Biocoat REF 356640) at a density of 40,000 cells/well in DMEM/F12 (Gibco) containing 10% FCS (Gibco), and maintained at 37° C., 5% CO2.
Prior to store-depletion, cell culture medium was removed and cells were loaded with the a Ca^2+-sensitive fluorescent dye comprised within the Calcium-4-assay kit (Molecular Devices) in nominally Ca^2+-free HBS buffer (140 mM NaCl, 4 mM KCl, 0.2 mM MgCl2, 11 mM D-glucose, and 10 mM HEPES, pH 7.4) according to manufacturer's instruction for 60 min at 37° C., 5% CO2.
Passive depletion of intracellular Ca^2+-stores was then triggered by employing the SERCA inhibitor thapsigargin (2 μM final) for 10 min in the dark (rt). To prevent immediate Ca^2+-entry via the activated Store-operated channels (SOCs), cells were maintained in Ca^2+-free HBS buffer comprising 100 μM EGTA during store-depletion.
Intracellular changes in [Ca^2+] were subsequently monitored with the FLIPR device (Molecular Devices). In brief, baseline imaging post-store depletion was allowed for 1 min before adjusting the extracellular buffer to 3 mM CaCl2. Increases in intracellular [Ca^2+] due to pre-activated SOC channels were monitored for 15 min until intracellular Ca^2+ levels had declined into a steady-state. Finally, compounds were administered and Ca^2+ signals were recorded for additional 10 min.
Inhibition of endogenous SOC in HEK293 cells was quantified employing the average Ca^2+ signal measured from 9.5-10 min post-administration. Zero percent inhibition (MAX) was defined as the Ca^2+ signal recorded from wells to which DMSO-only had been added instead of compound. Hundred percent inhibition (MIN) was defined as the signal obtained from wells in which cells haven't been treated with TG prior to Ca^2+ addition and to which DMSO-only had been added instead of compound. For routine IC50 determinations of compounds, 8 concentrations of a serial dilution (1:3.16) were tested, starting off from 10 μM. Reliable IC50's could consequently be determined only, if they were at least sub 2.5-3 μM.

[2] = system: Interleukin-2 (IL-2) production/release in Jurkat T cell line clone E6-1; assay: Jurkat IL-2 Production Assay; format: cell-based; conditions: Homo sapiens; Jurkat T cells stimulated with 15 μg/ml PHA for 22 hours; IL-2 in supernatant (AlphaLisa)
Description: Jurkat IL-2 Production Assay
The effect of compounds of the invention on Interleukin-2 (IL-2) production/release was tested in the Jurkat T cell line (ECACC) clone E6-1.
Jurkat T cells were cultured in DMEM/F12/Glutamax (Gibco) containing 10% FCS (Gibco), and maintained at 37° C., 5% CO2. Cells were split twice a week [5·10^6 (Mon-Thu) and 1·10^7 (Thu-Mon) cells/50 ml medium in T-175 ZK culture flasks, respectively].
Prior to experiment, cells were seeded on 96 well plates (Cellstar 96 Well; Cat No. 655180, Greiner bio-one) at a density of 5·10^5 cells/well in DMEM/F12/Glutamax (Gibco) containing 10% FCS (Gibco), and incubated for 60 min at 37° C., 5% CO2. Subsequently, compounds were added and cells were allowed to incubate for 30 min at 37° C., 5% CO2. Cells were then stimulated with 15 μg/ml Phyto-hemagglutinin (PHA; Sigma) for 22 hours at 37° C., 5% CO2.
Before sampling of the supernatants, cells were spun down (200*g/5 min/RT). The amount of IL-2 released into the supernatant was quantified with the human IL-2 AlphaLisa kit (Perkin Elmer) according to manufacturer's instructions. Luminescence proximity measurements were carried out in the Synergy H4 reader (BioTek) employing the fluorescence setting of the reader (ex: 680/30 nm; em: 620/40 nm).
Inhibition of IL-Production/Release in/from Jurkat T Cells Cells was Quantified as Follows:
Zero percent inhibition (MAX) was defined as the [IL-2] determined in supernatants derived from cells to which PHA & DMSO-only had been added instead of compound. Hundred percent inhibition (MIN) was defined as the [IL-2] determined in supernatants derived from cells that had been pre-treated with 1 μM CyclosporineA (Sigma) before the addition of 15 μg/ml PHA.
For routine IC50 determinations of compounds, 8 concentrations of a serial dilution (1:3.16) were tested, starting off from 10 μM.

T1 sequence (Q96D31 whole entry): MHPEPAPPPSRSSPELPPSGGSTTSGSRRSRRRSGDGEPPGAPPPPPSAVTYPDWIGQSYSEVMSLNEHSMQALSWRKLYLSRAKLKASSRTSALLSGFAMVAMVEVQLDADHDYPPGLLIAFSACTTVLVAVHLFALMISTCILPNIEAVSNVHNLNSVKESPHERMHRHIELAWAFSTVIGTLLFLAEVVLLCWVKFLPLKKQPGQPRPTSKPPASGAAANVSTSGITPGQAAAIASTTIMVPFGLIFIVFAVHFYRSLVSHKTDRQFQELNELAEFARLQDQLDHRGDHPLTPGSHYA

Row | Compound | inhibition at 10 µM [1] [%] | IC50 [2] [µM]
1 | Cc1ccc(-c2nccs2)cc1-c1cc(C(=O)Nc2ccncc2F)nn1C [Example 1, N-(3-Fluoro-pyridin-4-yl)-1-methyl-5-(2-methyl-5-thiazol-2-yl-phenyl)-1H-pyrazole-3-carboxylic acid amide] | > 70 | 1 to 5
2 | Cc1ccc(-c2ncco2)cc1-c1cc(C(=O)Nc2ccncc2F)nn1C [Example 2, N-(3-Fluoro-pyridin-4-yl)-1-methyl-5-(2-methyl-5-oxazol-2-yl-phenyl)-1H-pyrazole-3-carboxylic acid amide] | 50 to 70 | –
3 | Cc1ccc(-c2nccs2)cc1-c1cc(C(=O)Nc2c(F)cccc2F)nn1C [Example 3, N-(2,6-Difluoro-phenyl)-1-methyl-5-(2-methyl-5-thiazol-2-yl-phenyl)-1H-pyrazole-3-carboxylic acid amide] | < 50 | < 0.5
4 | COc1ccc(NC(=O)c2cc(-c3cc(-c4nccs4)ccc3C)n(C)n2)cc1 [Example 4, N-(4-Methoxyphenyl)-1-methyl-5-(2-methyl-5-thiazol-2-yl-phenyl)-1H-pyrazole-3-carboxylic acid amide] | 50 to 70 | 1 to 5
5 | Cc1ccc(-c2nccs2)cc1-c1cc(C(=O)Nc2ccc(F)cc2)nn1C [Example 5, N-(4-Fluorophenyl)-1-methyl-5-(2-methyl-5-thiazol-2-yl-phenyl)-1H-pyrazole-3-carboxylic acid amide] | 50 to 70 | 1 to 5
6 | Cc1cnccc1NC(=O)c1cc(-c2cc(-c3nccs3)ccc2C)n(C)n1 [Example 6, 1-Methyl-N-(3-methyl-pyridin-4-yl)-5-(2-methyl-5-thiazol-2-yl-phenyl)-1H-pyrazole-3-carboxylic acid amide] | 50 to 70 | 1 to 5
7 | COc1ccc(-c2nccs2)cc1-c1cc(C(=O)Nc2ccncc2F)nn1C [Example 7, N-(3-Fluoro-pyridin-4-yl)-5-(2-methoxy-5-thiazol-2-yl-phenyl)-1-methyl-1H-pyrazole-3-carboxylic acid amide] | < 50 | 0.5 to 1
8 | COc1ccc(-c2nccs2)cc1-c1cc(C(=O)Nc2c(F)cccc2F)nn1C [Example 8, N-(2,6-Difluoro-phenyl)-5-(2-methoxy-5-thiazol-2-yl-phenyl)-1-methyl-1H-pyrazole-3-carboxylic acid amide] | > 70 | 0.5 to 1
9 | Cn1nc(C(=O)Nc2ccncc2F)cc1-c1cc(-c2nccs2)ccc1Cl [Example 9, 5-(2-Chloro-5-thiazol-2-yl-phenyl)-N-(3-fluoro-pyridin-4-yl)-1-methyl-1H-pyrazole-3-carboxylic acid amide] | 50 to 70 | 1 to 5
10 | Cn1nc(C(=O)Nc2c(F)cccc2F)cc1-c1cc(-c2nccs2)ccc1Cl [Example 10, 5-(2-Chloro-5-thiazol-2-yl-phenyl)-N-(2,6-difluoro-phenyl)-1-methyl-1H-pyrazole-3-carboxylic acid amide] | < 50 | < 0.5
11 | Cc1ccc(-c2ccncc2)cc1-c1cc(C(=O)Nc2ccncc2F)nn1C [Example 11, N-(3-Fluoro-pyridin-4-yl)-1-methyl-5-(2-methyl-5-pyridin-4-yl-phenyl)-1H-pyrazole-3-carboxylic acid amide] | > 70 | 1 to 5
12 | Cc1ccc(-c2ccncc2)cc1-c1cc(C(=O)Nc2c(F)cccc2F)nn1C [Example 12, N-(2,6-Difluoro-phenyl)-1-methyl-5-(2-methyl-5-pyridin-4-yl-phenyl)-1H-pyrazole-3-carboxylic acid amide] | > 70 | < 0.5
13 | Cc1ccc(-c2cncnc2)cc1-c1cc(C(=O)Nc2c(F)cccc2F)nn1C [Example 13, N-(2,6-Difluoro-phenyl)-1-methyl-5-(2-methyl-5-pyrimidin-5-yl-phenyl)-1H-pyrazole-3-carboxylic acid amide] | < 50 | < 0.5
14 | Cn1nc(C(=O)Nc2c(F)cccc2F)cc1-c1cccc(-c2nccs2)c1 [Example 14, N-(2,6-Difluoro-phenyl)-1-methyl-5-(3-thiazol-2-yl-phenyl)-1H-pyrazole-3-carboxylic acid amide] | > 70 | < 0.5
15 | COc1ccc(C2CC2)cc1-c1cc(C(=O)Nc2ccncc2F)nn1C [Example 15, 5-(5-Cyclopropyl-2-methoxy-phenyl)-N-(3-fluoro-pyridin-4-yl)-1-methyl-1H-pyrazole-3-carboxylic acid amide] | > 70 | 1 to 5
16 | COc1ccc(C2CC2)cc1-c1cc(C(=O)Nc2c(F)cccc2F)nn1C [Example 16, 5-(5-Cyclopropyl-2-methoxy-phenyl)-N-(2,6-difluoro-phenyl)-1-methyl-1H-pyrazole-3-carboxylic acid amide] | > 70 | < 0.5
17 | Cc1cnc(C2CC2)nc1-c1cc(C(=O)Nc2c(F)cccc2F)nn1C [Example 17, 5-(2-Cyclopropyl-5-methyl-pyrimidin-4-yl)-N-(2,6-difluoro-phenyl)-1-methyl-1H-pyrazole-3-carboxylic acid amide] | 50 to 70 | –
18 | Cc1ccc(-c2ncco2)cc1-c1cc(C(=O)Nc2c(F)cccc2F)nn1C [Example 18, N-(2,6-Difluoro-phenyl)-1-methyl-5-(2-methyl-5-oxazol-2-yl-phenyl)-1H-pyrazole-3-carboxylic acid amide] | < 50 | 0.5 to 1
19 | Cc1noc(-c2ccc(C)c(-c3cc(C(=O)Nc4c(F)cccc4F)nn3C)c2)n1 [Example 19, N-(2,6-Difluoro-phenyl)-1-methyl-5-[2-methyl-5-(3-methyl-[1,2,4]oxadiazol-5-yl)-phenyl]-1H-pyrazole-3-carboxylic acid amide] | < 50 | 1 to 5
20 | Cc1ccc(-c2ccnc(N)c2)cc1-c1cc(C(=O)Nc2c(F)cccc2F)nn1C [Example 20, 5-[5-(2-Amino-pyridin-4-yl)-2-methyl-phenyl]-N-(2,6-difluoro-phenyl)-1-methyl-1H-pyrazole-3-carboxylic acid amide] | 50 to 70 | 0.5 to 1
21 | Cc1ccc(C2CCOCC2)cc1-c1cc(C(=O)Nc2ccncc2F)nn1C [Example 21, N-(3-Fluoro-pyridin-4-yl)-1-methyl-5-(2-methyl-5-tetrahydro-pyran-4-yl-phenyl)-1H-pyrazole-3-carboxylic acid amide] | 50 to 70 | –
22 | Cc1c(C(=O)Nc2ccncc2F)nn(C)c1-c1cccc(-c2nccs2)c1 [Example 29, N-(3-Fluoro-pyridin-4-yl)-1,4-dimethyl-5-(3-thiazol-2-yl-phenyl)-1H-pyrazole-3-carboxylic acid amide] | > 70 | –
